{"source": "patent US20200031811A1", "about": "“SUBSTITUTED MONO- AND POLYAZANAPHTHALENE DERIVATIVES AND THEIR USE” (Basilea Pharmaceutica International AG, priority 2015, published 2020)", "key": {"[1]": {"tested_on": "human pancreatic cancer cell line MiaPaCa2 (ATCC CRL-1420)", "assay": "Cell growth assay (CellTiterGlo, 72 hours)", "type": "cell-based", "conditions": "MIA PaCa-2, MiaPaCa2 cells, 72 hours, read-out: IC50 MiaPaCa", "summary_of_the_method": "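MiaPaCa2 cells (10^3/well) seeded in supplemented DMEM overnight, then exposed in quadruplicate to compound at 100 down to 0.1 μM for 72 h at 37° C. Growth read by CellTiterGlo luminescence, medium-only background subtracted, normalised to untreated cells; IC50 = concentration reducing growth to 50%.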"}, "MNK1": {"molecular_target": "T1, MNK1 (Homo sapiens, UniProt Q9BUB5)", "T1 construct": "purchased Life Technologies or Carna Biosciences PV6023 or 02-145; host or cells: baculovirus infected insect cells", "T1 sequence (Q9BUB5 whole entry)": "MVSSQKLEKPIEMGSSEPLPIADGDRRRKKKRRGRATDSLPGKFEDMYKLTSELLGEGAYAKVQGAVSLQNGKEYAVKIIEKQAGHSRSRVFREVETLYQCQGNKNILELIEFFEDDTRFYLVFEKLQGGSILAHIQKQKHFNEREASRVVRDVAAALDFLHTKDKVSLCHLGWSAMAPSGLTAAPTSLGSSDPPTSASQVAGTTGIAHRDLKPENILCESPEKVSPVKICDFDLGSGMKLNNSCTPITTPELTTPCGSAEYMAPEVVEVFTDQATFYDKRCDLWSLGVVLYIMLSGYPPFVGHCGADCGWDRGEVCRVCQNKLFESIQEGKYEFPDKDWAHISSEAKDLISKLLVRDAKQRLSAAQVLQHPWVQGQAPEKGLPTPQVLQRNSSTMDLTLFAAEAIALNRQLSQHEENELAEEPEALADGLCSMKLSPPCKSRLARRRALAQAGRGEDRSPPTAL", "assay": "MNK inhibition assay (Z-Lyte kinase assay, Ser/Thr 7 peptide)", "type": "biochemical", "conditions": "recombinant GST-MNK1, 3 hours at 31° C.", "summary_of_the_method": "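Recombinant GST-MNK1 from baculovirus-infected insect cells, Z-Lyte Ser/Thr 7 peptide, enzyme set for ~30% phosphorylation in buffer-only wells; 3 hours at 31° C. Compounds at 50–10000 nM (potent ones down to 0.5 nM), at least duplicate. IC50 from % substrate phosphorylation versus buffer-only wells, fluorescence read-out.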"}}, "data": [{"compound": "NC1CCN(Cc2cc3c(-c4cc5ccccc5o4)cncc3cc2Cl)CC1", "note": "[Example 250]", "values": [{"measurement": "IC50", "setting": "[1]", "result": 4.94, "unit": "µM"}, {"measurement": "IC50", "setting": "MNK1", "result": 0.064, "unit": "µM"}]}, {"compound": "NC1CCN(Cc2cc3c(-c4ccccc4)cncc3cc2Cl)CC1", "note": "[Example 251, 1-[(7-Chloro-4-phenyl-6-isoquinolyl)methyl]piperidin-4-amine]", "values": [{"measurement": "IC50", "setting": "[1]", "result": 4.55, "unit": "µM"}, {"measurement": "IC50", "setting": "MNK1", "result": 0.055, "unit": "µM"}]}, {"compound": "NC1CCN(Cc2cc([N+](=O)[O-])c3cncc(-c4cc5ccccc5o4)c3c2)CC1", "note": "[Example 252, 1-[[4-(Benzofuran-2-yl)-8-nitro-6-isoquinolyl]methyl]piperidin-4-amine]", "values": [{"measurement": "IC50", "setting": "[1]", "result": 20.5, "unit": "µM"}, {"measurement": "IC50", "setting": "MNK1", "result": 0.308, "unit": "µM"}]}, {"compound": "Nc1cc2cncc(-c3cc4ccccc4o3)c2cc1CN1CCC(N)CC1", "note": "[Example 254, 6-[(4-Amino-1-piperidyl)methyl]-4-(benzofuran-2-yl)isoquinolin-7-amine]", "values": [{"measurement": "IC50", "setting": "[1]", "result": 6.99, "unit": "µM"}, {"measurement": "IC50", "setting": "MNK1", "result": 0.057, "unit": "µM"}]}, {"compound": "Nc1ncc(-c2cc3ccccc3o2)c2cc(CN3CCC(N)CC3)cc(Cl)c12", "note": "[Example 256, 6-[(4-Amino-1-piperidyl)methyl]-4-(benzofuran-2-yl)-8-chloro-isoquinolin-1-amine]", "values": [{"measurement": "IC50", "setting": "[1]", "result": 1.22, "unit": "µM"}, {"measurement": "IC50", "setting": "MNK1", "result": 0.216, "unit": "µM"}]}, {"compound": "Nc1ncc(-c2ccccc2)c2cc(CN3CCC(N)CC3)cc(Cl)c12", "note": "[Example 257]", "values": [{"measurement": "IC50", "setting": "[1]", "result": 4.87, "unit": "µM"}, {"measurement": "IC50", "setting": "MNK1", "result": 0.159, "unit": "µM"}]}, {"compound": "COc1cc(CN2CCC(N)CC2)cc2c(-c3cc4ccccc4o3)cnc(N)c12", "note": "[Example 258, 6-[(4-Amino-1-piperidyl)methyl]-4-(benzofuran-2-yl)-8-methoxy-isoquinolin-1-amine]", "values": [{"measurement": "IC50", "setting": "[1]", "result": 3.57, "unit": "µM"}, {"measurement": "IC50", "setting": "MNK1", "result": 0.149, "unit": "µM"}]}, {"compound": "COc1cc(CN2CCC(N)CC2)cc2c(-c3ccccc3)cnc(N)c12", "note": "[Example 259]", "values": [{"measurement": "IC50", "setting": "[1]", "result": 1.3, "unit": "µM"}, {"measurement": "IC50", "setting": "MNK1", "result": 0.066, "unit": "µM"}]}, {"compound": "Nc1ncc2ccc(CN3CCNCC3)cc2c1-c1cc2ccccc2o1", "note": "[Example 260, 4-(Benzofuran-2-yl)-6-(piperazin-1-ylmethyl)isoquinolin-3-amine]", "values": [{"measurement": "IC50", "setting": "[1]", "result": 17.5, "unit": "µM"}, {"measurement": "IC50", "setting": "MNK1", "result": 1.59, "unit": "µM"}]}, {"compound": "Nc1ncc2ccc(CNc3ccnc4ccccc34)cc2c1-c1cc2ccccc2o1", "note": "[Example 261, 4-(Benzofuran-2-yl)-6-[(4-quinolylamino)methyl]isoquinolin-3-amine]", "values": [{"measurement": "IC50", "setting": "[1]", "result": 3.99, "unit": "µM"}, {"measurement": "IC50", "setting": "MNK1", "result": 0.054, "unit": "µM"}]}, {"compound": "c1ccc2oc(-c3cncc4ccc(CNc5ccnc6ncccc56)cc34)cc2c1", "note": "[Example 262, N-[[4-(Benzofuran-2-yl)-6-isoquinolyl]methyl]-1,8-naphthyridin-4-amine]", "values": [{"measurement": "IC50", "setting": "[1]", "result": 6.8, "unit": "µM"}, {"measurement": "IC50", "setting": "MNK1", "result": 0.028, "unit": "µM"}]}, {"compound": "NC1CCN(Cc2ccc3cncc(-c4cc5ccccc5o4)c3c2)CC1(F)F", "note": "(stereo not drawn) [Example 263, 1-[[4-(Benzofuran-2-yl)-6-isoquinolyl]methyl]-3,3-difluoro-piperidin-4-amine]", "values": [{"measurement": "IC50", "setting": "[1]", "result": 9.97, "unit": "µM"}, {"measurement": "IC50", "setting": "MNK1", "result": 0.703, "unit": "µM"}]}, {"compound": "Nc1ncc(-c2ccccc2)c2cc(CN3CCC(N)CC3)c(Cl)cc12", "note": "[Example 264, 6-[(4-Amino-1-piperidyl)methyl]-7-chloro-4-phenyl-isoquinolin-1-amine]", "values": [{"measurement": "IC50", "setting": "[1]", "result": 5.93, "unit": "µM"}, {"measurement": "IC50", "setting": "MNK1", "result": 0.194, "unit": "µM"}]}, {"compound": "NC1CCN(Cc2cc3c(-c4ccccc4)cncc3cc2O)CC1", "note": "[Example 265, 6-[(4-Amino-1-piperidyl)methyl]-4-phenyl-isoquinolin-7-ol]", "values": [{"measurement": "IC50", "setting": "[1]", "result": 21.9, "unit": "µM"}, {"measurement": "IC50", "setting": "MNK1", "result": 0.308, "unit": "µM"}]}, {"compound": "COc1cc2cncc(-c3ccccc3)c2cc1CN1CCC(N)CC1", "note": "[Example 266, 1-[(7-Methoxy-4-phenyl-6-isoquinolyl)methyl]piperidin-4-amine]", "values": [{"measurement": "IC50", "setting": "[1]", "result": 14.4, "unit": "µM"}, {"measurement": "IC50", "setting": "MNK1", "result": 0.059, "unit": "µM"}]}, {"compound": "COc1cc2c(N)ncc(-c3ccccc3)c2cc1CN1CCC(N)CC1", "note": "[Example 267, 6-[(4-Amino-1-piperidyl)methyl]-7-methoxy-4-phenyl-isoquinolin-1-amine]", "values": [{"measurement": "IC50", "setting": "[1]", "result": 3.93, "unit": "µM"}, {"measurement": "IC50", "setting": "MNK1", "result": 0.34, "unit": "µM"}]}, {"compound": "N[C@@H]1CCN(Cc2ccc3cncc(-c4cc5ccccc5o4)c3c2)C[C@H]1O", "note": "[Example 268, (3R,4R/3S,4S)-4-Amino-1-[[4-(benzofuran-2-yl)-6-isoquinolyl]methyl]piperidin-3-ol]", "values": [{"measurement": "IC50", "setting": "[1]", "result": 5.33, "unit": "µM"}, {"measurement": "IC50", "setting": "MNK1", "result": 0.053, "unit": "µM"}]}, {"compound": "N[C@@H]1CCN(Cc2ccc3cncc(-c4cc5ccccc5o4)c3c2)C[C@@H]1O", "note": "[Example 269, (3S,4R/3R,4S)-4-Amino-1-[[4-(benzofuran-2-yl)-6-isoquinolyl]methyl]piperidin-3-ol]", "values": [{"measurement": "IC50", "setting": "[1]", "result": 9.03, "unit": "µM"}, {"measurement": "IC50", "setting": "MNK1", "result": 0.141, "unit": "µM"}]}]}
